Measurements published in paper PMC5321741, “Arylmethylamino steroids as antiparasitic agents” (Nature Communications, 2017).

How the values were obtained:
[1] = test system: P. berghei asexual stages; experiment: ex vivo drug assay (luciferase), asexual stages; format: cell-based; details: Plasmodium berghei, 24 h, read-out: IC50 against P. berghei ex vivo
Experimental: Plates frozen at −80 °C were thawed at 37 °C. The cells were lysed at room temperature in 10 μl 1x luciferin lysis buffer (Luciferase Cell Culture Lysis 5 × reagent, Promega), and 100 μl luciferase assay substrate was added to each well (Luciferase Assay System, Promega). Luciferase activity was measured on a luminescence plate reader (Mithras LB940 luminometer, Berthold Technologies). The mean of the luciferase activity was calculated for each technical triplicate and normalized as follows: (Lucx−LucRBC)/(Lucsolvent−LucRBC) with Lucx and Lucsolvent=mean luciferase activity for parasites incubated with compound x and with solvent (DMSO for 1o and PBS for MB), respectively, and LucRBC=mean luciferase activity of non-infected red blood cells (background). IC50 values were calculated using Prism (GraphPad, log(inhibitor) versus normalized response—variable slope) in three independent experiments for the P. falciparum gametocyte assay and five for the P. berghei ex vivo drug assay.
The animal experiments described in this part were performed at the Institut de Biologie Moléculaire et Cellulaire (Strasbourg, France), using facilities and protocols adhering to national regulations of laboratory animal welfare in France. […] Parasitaemia was monitored via FACS analysis (FACSCalibur, BD Bioscience). […]

[2] = in vitro; format: cell-based; details: Human
Experimental: Furthermore, cytotoxicity tests were carried out on immortalized human hepatocytes, Fa2N-4 cells (XenoTech, cat.no. IFH15), at the Sanford-Burnham Medical Research Institute. Cells were incubated with a range of concentrations (0.01–50 μM) of compound 1o for 24 h. Cell viability was determined with cellular ATP levels by using the Luminescence ATP Detection Assay System (ATPlite 1 step).

[3] = test system: P. falciparum gametocytes (pfs16-GFP-Luc, NF54 background); experiment: gametocyte luciferase assay; format: cell-based, Plasmodium falciparum
Experimental: Sensitivity of P falciparum gametocytes to lead compound 1o was determined by measuring the activity of luciferase in luciferase-expressing gametocytes after an exposure of 72 h to different concentrations of compound 1o.
The pfs16-GFP-Luc (NF54 background) parasite strain[44] was maintained at 1 to 10% parasitaemia in an RPMI 1640 culture medium supplemented with A+ erythrocytes (2% haematocrit), 10% decomplemented human serum, 9 mM (0.16%) glucose, 0.2 mM hypoxanthine, 2.1 mM L-glutamine, and 20 μg ml^−1 gentamicin. Parasite cultures were incubated at 37 °C in 5% O2, 5% CO2, and 90% N2. […] Following drug exposure, parasites were cultivated for two additional days in normal medium before centrifugation and freezing at −80 °C, and luciferase activity was measured.
Plates frozen at −80 °C were thawed at 37 °C. […] Luciferase activity was measured on a luminescence plate reader (Mithras LB940 luminometer, Berthold Technologies). The mean of the luciferase activity was calculated for each technical triplicate and normalized as follows: (Lucx−LucRBC)/(Lucsolvent−LucRBC) with Lucx and Lucsolvent=mean luciferase activity for parasites incubated with compound x and with solvent (DMSO for 1o and PBS for MB), respectively, and LucRBC=mean luciferase activity of non-infected red blood cells (background). […]

With `COc1ccc2c(c1)CCC1C2CC[C@@]2(C)C1CC[C@H]2NCc1cc2ccccc2cc1O` (stereo partly shown) [1o] the IC50 [1] was 3.1 ± 2.4 nM, the CC50 at 24 h [2] was greater than 50000 nM and the “relative survival of gametocytes” value ([3]; concentrations >5 nM, all stages, 72 h exposure) was “below 50%”. For the same compound, the “complete killing of gametocytes” value ([3]; even at concentrations >1 μM) was “never detected complete killing of gametocytes”.
